{"source": "patent US20250250537A1", "about": "“IN VITRO INSECT FAT CULTIVATION FOR CELLULAR AGRICULTURE APPLICATIONS” (Trustees of Tufts College, priority 2022, published 2025)", "key": {"S2 cells": {"system": "S2 cells", "details": "1 mM over 24 hours; cited from earlier work"}, "Ms PCs": {"system": "Ms PCs", "test": "Lipid accumulation screen in Ms PCs (BODIPY and Oil Red O staining, Oil Red O dye elution)", "assay_type": "cell-based, M. sexta", "details": "1 mM, 7 days in culture", "experimental": "To screen for lipid accumulation in Ms PCs, cells were seeded at 100,000 cells/cm^2 in 48-well plates. After 24 hours in culture, media was refreshed with growth media supplemented with variable concentrations (0, 0.01, 0.1, 1 mM) of water-soluble oleic acid (01257, Sigma-Aldrich) or Intralipid (I141, Sigma-Aldrich). After seven days in culture, cells were stained with BODIPY ([…], Fisher Scientific) at a 1:2,000 dilution and NucBlue (R37605, Fisher Scientific) or fixed and stained with Oil Red O (O0625, Sigma-Aldrich). Cells were imaged on a fluorescence microscope (BZ-X800, Keyence). To quantify lipid accumulation, Oil Red O dye from each condition was eluted with isopropanol and absorbance (500 nm) was measured on a microplate reader. To investigate lipid accumulation over time, cells were treated with 0.1 mM of Intralipid and stained with BODIPY and NucBlue on days 1, 4, 7 and 14."}}, "data": [{"smiles": "CCCCCCCC/C=C\\CCCCCCCC(=O)O", "note": "[oleic acid]", "values": [{"measurement": "increase in triacylglycerol content", "setting": "S2 cells", "result": 5, "unit": "fold"}, {"measurement": "lipid droplet formation (BODIPY and Oil Red O staining)", "setting": "Ms PCs", "result": "visible"}, {"measurement": "morphology, growth and viability of treated cells", "setting": "Ms PCs", "result": "unhealthy morphology, minimal growth, and were assumed to be nonviable"}]}]}
